| Structure (SMILES) | melting point [°C] | boiling point [°C] | log10 Koc (L/kg) | log10 vapour pressure (mmHg) | log10 Henry constant (atm·m³/mol) | logP | ready biodegradability | log10 Koa |
| --- | --- | --- | --- | --- | --- | --- | --- | --- |
| O=C(c1ccc(F)cc1)c1ccc(F)cc1 | 104 |  |  |  |  |  |  |  |
| CCOC(=O)C=C(C)C |  | 154 |  |  |  |  |  |  |
| CCCCCCCCCCCS | -3 | 257 |  |  |  |  |  |  |
| C[Si](C)(C)c1ccccc1 |  | 170 |  |  |  |  |  |  |
| CCNc1nc(Cl)nc(NC(C)(C)C#N)n1 | 168 |  | 2.28 | -6.86 |  |  |  |  |
| c1ccc2c(c1)cnc1ccccc12 | 107 | 349 |  | -4.68 |  |  |  |  |
| Cc1ccc(Cl)cc1C | -6 | 194 |  |  |  |  |  |  |
| COc1ccc(CN(CCN(C)C)c2ncccn2)cc1.Cl | 174 |  |  |  |  |  |  |  |
| O=C1CCCCCCCCC1O (configuration not stated) | 42 |  |  |  |  |  |  |  |
| C1CCC(CCCC2CCCC2)CC1 |  | 270 |  |  |  |  |  |  |
| NC(=O)OCC(COC(N)=O)c1ccccc1 | 152 |  |  |  |  |  |  |  |
| C=C(Br)CC | -133 | 88 |  |  |  |  |  |  |
| CC(C)C1CCCCC1 | -89.4 | 155 |  | 0.681 |  |  |  |  |
| O=[N+]([O-])c1c(O)ccc2ccccc12 | 104 |  |  |  |  |  |  |  |
| CC(C)c1ccccc1O | 15.5 | 214 |  | -1 |  |  |  |  |
| CCCSC(=O)N(CCC)CCC |  |  | 2.33 | -1.98 |  |  |  |  |
| c1ccc(-c2cc(-c3ccccc3)cc(-c3ccccc3)c2)cc1 | 176 | 462 |  |  |  |  |  |  |
| O[C@@H]1CCCC[C@H]1O | 102 |  |  |  |  |  |  |  |
| CCCOP(=O)(OCCC)OCCC |  | 252 |  |  | -6.17 |  |  |  |
| Brc1cc(Br)c(Oc2c(Br)cc(Br)c(Br)c2Br)cc1Br |  |  |  |  |  | 8.27 |  |  |
| O=C1OC2(c3ccccc31)c1cc(Br)c(O)c(Br)c1Oc1c2cc(Br)c(O)c1Br | 295 |  |  |  |  |  |  |  |
| CC(O)C(C)C(C)O (configuration not stated) |  | 212 |  |  |  |  |  |  |
| CC(=O)Nc1ccc(S(N)(=O)=O)cc1 | 220 |  |  |  |  |  |  |  |

| Structure (SMILES) | melting point [°C] | boiling point [°C] | log10 Koc (L/kg) | log10 vapour pressure (mmHg) | log10 Henry constant (atm·m³/mol) | logP | ready biodegradability | log10 Koa |
| --- | --- | --- | --- | --- | --- | --- | --- | --- |
| Nc1ccc(S(=O)(=O)NC(=O)c2ccccc2)cc1 | 182 |  |  |  |  |  |  |  |
| CNC(=O)c1cccnc1 | 104 |  |  |  |  |  |  |  |
| O=c1cc(CN2CCOCC2)c2cc(O)c(O)cc2o1 | 232 |  |  |  |  |  |  |  |
| OCC(Cl)(Cl)Cl | 19 | 152 |  |  |  |  |  |  |
| CO[C@@H]1C=C[C@@]23c4cc5c(cc4CO[C@]2(O)CN(C)[C@H]3C1)OCO5 | 210 |  |  |  |  |  |  |  |
| ClCCCCCCCCCCl |  | 260 |  |  |  |  |  |  |
| CC(C)Cc1ccc(N)cc1 |  | 238 |  |  |  |  |  |  |
| CCCCCCCCn1sccc1=O |  |  |  | -4.43 |  |  |  |  |
| C=C(C)C1CC=C(C)C(O)C1 (configuration not stated) |  | 228 |  |  |  |  |  |  |
| Cc1ccc(I)cc1 | 36.5 | 211 |  |  |  |  |  |  |
| CCCCCCCCCCCCCCCC[n+]1ccccc1.[Br-] | 63 |  |  |  |  |  |  |  |
| [Br-].[Br-].c1cc[n+]2c(c1)-c1cccc[n+]1CC2 | 337 |  |  |  |  |  |  |  |
| CC(C)(C)Cl | -26 | 50.5 |  |  |  |  | not readily biodegradable |  |
| CCCCCOC |  | 99 |  |  |  |  |  |  |
| CCN(C(C)=O)C(C)=O |  | 197 |  |  |  |  |  |  |
| COc1nc2c(c(=O)n(C)c(=O)n2C)n1C | 176 |  |  |  |  |  |  |  |
| O=C1C=C(N2CC2)C(=O)C(N2CC2)=C1N1CC1 | 163 |  |  |  |  |  |  |  |
| c1ccnnc1 | -8 | 208 |  |  |  |  |  |  |
| CCC(C(=O)NC(N)=O)c1ccccc1 (configuration not stated) | 162 |  |  |  |  |  |  |  |
| Brc1ccc(Oc2ccc(Br)cc2Br)cc1 |  |  |  | -6.17 |  | 5.94 |  | 9.5 |
| CC(C)OC(=O)Nc1cccc(Cl)c1 | 41 |  | 2.6 | -3.74 |  |  | readily biodegradable |  |
| O=C1C(=O)c2ccccc2-c2ccccc21 | 209 | 360 |  |  |  |  |  |  |
| Cc1ccc(C(C)C)cc1 | -68.5 | 177 |  | 0.19 |  |  | readily biodegradable |  |

| Structure (SMILES) | melting point [°C] | boiling point [°C] | log10 Koc (L/kg) | log10 vapour pressure (mmHg) | log10 Henry constant (atm·m³/mol) | logP | ready biodegradability | log10 Koa |
| --- | --- | --- | --- | --- | --- | --- | --- | --- |
| O=C1c2ccccc2C(=O)C1c1ccc(Br)cc1 | 138 |  |  |  |  |  |  |  |
| Cc1c(Cl)ccc(O)c1Cl | 58 | 236 |  |  |  |  |  |  |
| O=C1c2c(O)ccc(Nc3ccccc3)c2C(=O)c2c([N+](=O)[O-])ccc(O)c21 |  |  |  |  |  |  | not readily biodegradable |  |
| COc1ccc(C(=O)Cc2c(CCN(C)C)cc3c(c2OC)OCO3)c(C(=O)O)c1OC | 138 |  |  |  |  |  |  |  |
| CCCCCCCCC=CCCCCCCCC(=O)Nc1ccccc1 | 41 |  |  |  |  |  |  |  |
| CCCCCCC(=O)OCC(C)C |  | 208 |  |  |  |  |  |  |
| O=C(Cl)c1cccc([N+](=O)[O-])c1 | 36 | 276 |  |  |  |  |  |  |
| Nc1ccccc1O |  |  |  |  |  |  | not readily biodegradable |  |
| N#Cc1c(Cl)cccc1Cl | 144 | 270 | 2.5 | -3.18 |  |  |  |  |
| CCCC/C=C/CCCCC | -83.8 | 192 |  |  |  |  |  |  |
| O=C(O)c1ccccc1C(F)(F)F | 111 |  |  |  |  |  |  |  |
| OCc1ccccc1I | 92 |  |  |  |  |  |  |  |
| CC(CCO)CCCC(C)(C)O (configuration not stated) |  | 265 |  |  |  |  |  |  |
| C=CCCBr |  | 98.5 |  |  |  |  |  |  |
| Brc1cccc(Br)c1Oc1ccccc1 |  |  |  |  |  |  |  | 8.12 |
| Clc1cc(Cl)c2ccccc2n1 | 67.5 | 281 |  |  |  |  |  |  |
| O=C(O)CCSCCC(=O)O | 129 |  |  |  |  |  | readily biodegradable |  |
| O=C(SSC(=O)c1ccccc1)c1ccccc1 | 134 |  |  |  |  |  |  |  |
| C=C1C[C@]23C[C@@]1(O)CC[C@H]2[C@@]12C=C[C@H](O)[C@@](C)(C(=O)O1)[C@H]2[C@@H]3C(=O)O | 234 |  |  |  |  |  |  |  |
| C#C[C@]1(O)CC[C@H]2[C@@H]3CCC4=CC(=O)CC[C@@H]4[C@H]3CC[C@@]21C | 204 |  |  |  |  |  |  |  |
| C=C[C@@](C)(O)CC/C=C(/C)CCC=C(C)C |  | 276 |  |  |  |  |  |  |
| C1OCOCO1 | 60.2 | 114 |  | 1.24 |  |  |  |  |
| COc1cc(CNC(=O)CCCC/C=C/C(C)C)ccc1O | 65 |  |  |  |  |  |  |  |

From the OPERA property sets (Mansouri et al. 2018)
